Assay results from ChEMBL document CHEMBL1157938, “Cytotoxicity and inhibition of DNA topoisomerase I of polyhydroxylated triterpenoids and triterpenoid glycosides” (Bioorg Med Chem Lett, 2010).
Calls of active or inactive are those of the source. The calls are words filed in the database; no cut-off is given here.

Legend:
PC-3 [1] = assay: Cytotoxicity against human PC3 cells after 48 hrs by WST8 assay; assay type: functional; settings: PC-3, 48 h
[2] = target: DNA topoisomerase 2-alpha (Homo sapiens, UniProt P11388); assay: Inhibition of human DNA topoisomerase 2-mediated relaxation of supercoiled DNA by gel electrophoresis
Sequence of DNA topoisomerase 2-alpha (P11388 whole entry): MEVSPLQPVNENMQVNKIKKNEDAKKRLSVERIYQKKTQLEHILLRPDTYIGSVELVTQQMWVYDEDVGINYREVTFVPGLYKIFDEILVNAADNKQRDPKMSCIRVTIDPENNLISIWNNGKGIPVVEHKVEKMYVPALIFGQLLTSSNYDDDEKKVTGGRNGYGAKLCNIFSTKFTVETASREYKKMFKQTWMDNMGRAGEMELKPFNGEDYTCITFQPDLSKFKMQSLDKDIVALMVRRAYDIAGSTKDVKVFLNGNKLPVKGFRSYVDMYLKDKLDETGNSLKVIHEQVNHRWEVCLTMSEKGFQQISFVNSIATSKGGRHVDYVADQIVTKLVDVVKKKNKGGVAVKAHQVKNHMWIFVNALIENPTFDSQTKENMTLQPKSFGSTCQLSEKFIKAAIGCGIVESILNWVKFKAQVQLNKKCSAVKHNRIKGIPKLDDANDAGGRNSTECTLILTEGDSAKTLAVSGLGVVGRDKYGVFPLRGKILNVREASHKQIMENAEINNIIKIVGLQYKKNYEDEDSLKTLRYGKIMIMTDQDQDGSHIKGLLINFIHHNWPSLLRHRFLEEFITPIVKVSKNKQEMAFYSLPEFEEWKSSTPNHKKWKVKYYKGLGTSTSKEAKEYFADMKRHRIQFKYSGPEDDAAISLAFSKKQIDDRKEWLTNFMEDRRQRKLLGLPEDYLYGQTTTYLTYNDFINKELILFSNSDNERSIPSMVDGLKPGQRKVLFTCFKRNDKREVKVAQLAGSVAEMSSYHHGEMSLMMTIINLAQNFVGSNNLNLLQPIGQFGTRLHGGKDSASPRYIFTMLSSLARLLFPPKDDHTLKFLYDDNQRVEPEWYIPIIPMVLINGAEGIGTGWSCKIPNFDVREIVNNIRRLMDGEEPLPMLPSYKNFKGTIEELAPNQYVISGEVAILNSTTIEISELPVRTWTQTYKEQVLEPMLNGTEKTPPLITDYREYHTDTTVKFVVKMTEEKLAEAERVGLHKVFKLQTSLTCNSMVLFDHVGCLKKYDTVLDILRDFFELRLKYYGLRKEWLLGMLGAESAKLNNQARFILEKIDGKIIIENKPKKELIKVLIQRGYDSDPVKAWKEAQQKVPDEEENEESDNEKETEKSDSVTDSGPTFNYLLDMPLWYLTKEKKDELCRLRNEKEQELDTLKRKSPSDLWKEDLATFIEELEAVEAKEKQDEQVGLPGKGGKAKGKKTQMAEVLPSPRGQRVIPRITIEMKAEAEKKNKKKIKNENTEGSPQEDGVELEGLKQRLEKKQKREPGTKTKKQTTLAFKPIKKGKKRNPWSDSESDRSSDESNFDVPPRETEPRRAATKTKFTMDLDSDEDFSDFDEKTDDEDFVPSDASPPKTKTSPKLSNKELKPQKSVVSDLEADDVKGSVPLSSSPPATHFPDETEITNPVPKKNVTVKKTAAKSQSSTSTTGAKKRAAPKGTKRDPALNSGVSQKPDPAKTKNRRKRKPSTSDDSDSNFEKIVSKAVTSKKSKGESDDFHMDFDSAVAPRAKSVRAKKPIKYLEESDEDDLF

[3] = Cytotoxicity against human MRC5 cells after 48 hrs by WST8 assay; assay type: cell-based
A549 [4] = assay: Cytotoxicity against human A549 cells after 48 hrs by WST8 assay; assay type: functional; settings: A549, 48 h
HL-60 [5] = assay: Cytotoxicity against human HL60 cells after 48 hrs by WST8 assay; assay type: functional; settings: HL-60, 48 h
DNA topoisomerase 1 = target: T1, DNA topoisomerase 1 (Homo sapiens, UniProt P11387); assay: Inhibition of human DNA topoisomerase 1-mediated relaxation of supercoiled DNA by gel electrophoresis
T1 sequence (P11387 whole entry): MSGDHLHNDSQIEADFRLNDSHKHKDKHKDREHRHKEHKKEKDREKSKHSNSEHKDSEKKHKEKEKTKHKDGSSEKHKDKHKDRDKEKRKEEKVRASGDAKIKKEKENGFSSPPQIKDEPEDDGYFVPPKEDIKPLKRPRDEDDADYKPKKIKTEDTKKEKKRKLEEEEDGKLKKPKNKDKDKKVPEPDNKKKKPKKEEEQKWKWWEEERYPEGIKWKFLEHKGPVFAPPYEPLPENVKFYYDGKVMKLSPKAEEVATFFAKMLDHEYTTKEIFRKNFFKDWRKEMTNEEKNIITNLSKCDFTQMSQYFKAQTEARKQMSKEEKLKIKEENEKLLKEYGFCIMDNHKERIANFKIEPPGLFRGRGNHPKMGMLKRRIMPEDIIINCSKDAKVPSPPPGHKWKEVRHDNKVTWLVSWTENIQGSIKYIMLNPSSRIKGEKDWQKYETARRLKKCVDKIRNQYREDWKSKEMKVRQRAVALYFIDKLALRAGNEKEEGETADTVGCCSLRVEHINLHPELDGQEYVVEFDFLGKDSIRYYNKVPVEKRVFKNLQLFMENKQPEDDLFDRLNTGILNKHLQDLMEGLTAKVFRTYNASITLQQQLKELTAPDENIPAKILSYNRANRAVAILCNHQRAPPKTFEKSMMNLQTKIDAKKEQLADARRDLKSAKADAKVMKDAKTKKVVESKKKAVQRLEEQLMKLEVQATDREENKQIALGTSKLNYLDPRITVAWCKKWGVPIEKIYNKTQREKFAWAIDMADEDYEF

PANC-1 [6] = assay: Cytotoxicity against human PANC1 cells after 48 hrs by WST8 assay; assay type: functional; settings: PANC-1, 48 h
HL-60 [7] = assay: Cytotoxicity against human HL60 cells at 25 uM after 48 hrs by WST8 assay; assay type: functional, cell-based
MRC5 = assay: Cytotoxicity against human MRC5 cells at 25 uM after 48 hrs by WST8 assay; assay type: cell-based; settings: mrc5, 48 h
PC-3 [8] = assay: Cytotoxicity against human PC3 cells at 25 uM after 48 hrs by WST8 assay; assay type: functional, cell-based
A549 [9] = assay: Cytotoxicity against human A549 cells at 25 uM after 48 hrs by WST8 assay; assay type: functional, cell-based
PANC-1 [10] = assay: Cytotoxicity against human PANC1 cells at 25 uM after 48 hrs by WST8 assay; assay type: functional, cell-based
[11] = target: T2, DNA topoisomerase 1 (Homo sapiens) (UniProt P11387); assay: Inhibition of human DNA topoisomerase 1-mediated relaxation of supercoiled DNA at 312 uM
T2 sequence (whole entry): T1 sequence (P11387 whole entry)

Row | Compound | GI50 (PC-3 [1]) | IC50 [2] | GI50 at 48 h [3] | GI50 (A549 [4]) | GI50 (HL-60 [5]) | IC50 (DNA topoisomerase 1) | GI50 (PANC-1 [6]) | growth inhibition (GI) (HL-60 [7]) | growth inhibition (GI) (MRC5) | growth inhibition (GI) (PC-3 [8]) | growth inhibition (GI) (A549 [9]) | growth inhibition (GI) (PANC-1 [10]) | inhibition [11]
1 | C/C=C(/C)C(=O)O[C@H]1[C@H](OC(=O)C(C)CC)[C@]2(CO)[C@H](O)[C@H](O)[C@]3(C)C(=CC[C@@H]4[C@@]5(C)CC[C@H](O)C(C)(C)[C@@H]5CC[C@]43C)[C@@H]2CC1(C)C (stereo not given in full) | 12.5 µM | > 250 µM | 6.53 µM | 5.37 µM | 4.21 µM | > 250 µM | 12.8 µM |  |  |  |  |  | 
2 | C/C=C(\C)C(=O)O[C@H]1[C@H](OC(C)=O)[C@]2(CO)[C@H](O)C[C@]3(C)C(=CC[C@@H]4[C@@]5(C)CC[C@H](O[C@@H]6O[C@H](C(=O)O)[C@@H](O)[C@H](O[C@@H]7O[C@@H](CO)[C@H](O)[C@H]7O)[C@H]6O[C@@H]6O[C@H](CO)[C@H](O)[C@H](O)[C@H]6O)C(C)(C)[C@@H]5CC[C@]43C)[C@@H]2CC1(C)C [AESCULIOSIDE IIJ] | 13.8 µM | > 250 µM | 17.3 µM | 21.8 µM |  | > 250 µM | 21.9 µM | inactive |  |  |  |  | 
3 | C/C=C(/CC)C(=O)O[C@H]1[C@H](OC(C)=O)[C@]2(CO)[C@H](O)[C@H](O)[C@]3(C)C(=CC[C@@H]4[C@@]5(C)CC[C@H](O[C@@H]6O[C@H](C(=O)O)[C@@H](O)[C@H](O[C@@H]7OC[C@H](O)[C@H](O)[C@H]7O)[C@H]6O[C@@H]6O[C@H](CO)[C@@H](O)[C@H](O)[C@H]6O)C(C)(C)[C@@H]5CC[C@]43C)[C@@H]2CC1(C)C [SANICULASAPONIN III] | 8.51 µM | > 250 µM | 3.54 µM | 4.73 µM | 7.11 µM | > 250 µM | 16 µM |  |  |  |  |  | 
4 | C/C=C(/C)C(=O)O[C@H]1[C@H](OC(C)=O)[C@]2(CO)[C@H](O)C[C@]3(C)C(=CC[C@@H]4[C@@]5(C)CC[C@H](O[C@@H]6O[C@H](C(=O)O)[C@@H](O)[C@H](O[C@@H]7O[C@@H](CO)[C@H](O)[C@H]7O)[C@H]6O[C@@H]6O[C@H](CO)[C@@H](O)[C@H](O)[C@H]6O)[C@](C)(CO)[C@@H]5CC[C@]43C)[C@@H]2CC1(C)C [AESCULIOSIDE III] | 9.54 µM | > 250 µM | 12.8 µM | 20.1 µM | 8.37 µM | > 250 µM | 14.8 µM |  |  |  |  |  | 
5 | C/C=C(/C)C(=O)O[C@H]1[C@H](OC(=O)/C(C)=C\C)[C@]2(CO)[C@H](O)C[C@]3(C)C(=CC[C@@H]4[C@@]5(C)CC[C@H](O)[C@](C)(CO)[C@@H]5CC[C@]43C)[C@@H]2CC1(C)C | 2.39 µM | > 250 µM | 1.65 µM | 1.94 µM | 2.72 µM | > 250 µM | 4.63 µM |  |  |  |  |  | 
6 | C/C=C(/C)C(=O)O[C@H]1[C@H](OC(C)=O)[C@]2(CO)[C@H](O)C[C@]3(C)C(=CC[C@@H]4[C@@]5(C)CC[C@H](O[C@@H]6O[C@H](C(=O)O)[C@@H](O)[C@H](O[C@@H]7OC[C@H](O)[C@H](O)[C@H]7O)[C@H]6O[C@@H]6O[C@H](CO)[C@@H](O)[C@H](O)[C@H]6O)C(C)(C)[C@@H]5CC[C@]43C)[C@@H]2CC1(C)C [ERYNGIIOSIDE L] | 11.3 µM | > 250 µM | 8.71 µM | 8.35 µM | 8.41 µM | > 250 µM | 13 µM |  |  |  |  |  | 
7 | C/C=C(/C)C(=O)O[C@H]1[C@H](OC(=O)C(C)CC)[C@]2(CO)[C@H](O)C[C@]3(C)C(=CC[C@@H]4[C@@]5(C)CC[C@H](O)C(C)(C)[C@@H]5CC[C@]43C)[C@@H]2CC1(C)C (stereo not given in full) | 4.11 µM | > 250 µM | 3.67 µM | 1.7 µM | 4.6 µM | > 250 µM | 9.6 µM |  |  |  |  |  | 
8 | C/C=C(/C)C(=O)O[C@H]1[C@H](O)C(C)(C)C[C@H]2C3=CC[C@@H]4[C@@]5(C)CC[C@H](O[C@@H]6O[C@H](C(=O)O)[C@@H](O)[C@H](O[C@@H]7OC[C@@H](O)[C@H](O)[C@H]7O)[C@H]6O[C@@H]6O[C@H](CO)[C@@H](O)[C@H](O)[C@H]6O)C(C)(C)[C@@H]5CC[C@@]4(C)[C@]3(C)[C@@H](O)[C@@H](O)[C@]21CO [ERYNGIOSIDE E] |  | > 250 µM |  |  |  | > 250 µM |  | inactive | Not Active | inactive | inactive | inactive | 
9 | C/C=C(/C)C(=O)O[C@H]1[C@H](OC(C)=O)[C@]2(CO)[C@H](O)[C@H](O)[C@]3(C)C(=CC[C@@H]4[C@@]5(C)CC[C@H](O[C@@H]6O[C@H](C(=O)O)[C@@H](O)[C@H](O[C@@H]7OC[C@@H](O)[C@H](O)[C@H]7O)[C@H]6O[C@@H]6O[C@H](CO)[C@@H](O)[C@H](O)[C@H]6O)C(C)(C)[C@@H]5CC[C@]43C)[C@@H]2CC1(C)C [ERYNGIIOSIDE J] | 5.08 µM | > 250 µM | 5.61 µM | 4.3 µM | 7.36 µM | > 250 µM | 11.5 µM |  |  |  |  |  | 
10 | C/C=C(/C)C(=O)O[C@H]1[C@H](O)[C@]2(CO)[C@H](O)C[C@]3(C)C(=CC[C@@H]4[C@@]5(C)CC[C@H](O)[C@](C)(CO)[C@@H]5CC[C@]43C)[C@@H]2CC1(C)C | 2.23 µM | > 250 µM | 18.1 µM | 2.45 µM |  | > 250 µM | 11.9 µM | inactive |  |  |  |  | 
11 | CC(=O)O[C@H]1CC[C@]2(C)[C@H]3CC=C4[C@@H]5CC(C)(C)CC[C@]5(C)CC[C@@]4(C)[C@]3(C)CC[C@H]2C1(C)C [beta-AMYRIN ACETATE] |  |  |  |  |  |  |  | inactive | Not Active | inactive | inactive | inactive | inactive
12 | C/C=C(/C)C(=O)O[C@H]1[C@H](OC(=O)C(C)C)[C@]2(CO)[C@H](O)C[C@]3(C)C(=CC[C@@H]4[C@@]5(C)CC[C@H](O)[C@](C)(CO)[C@@H]5CC[C@]43C)[C@@H]2CC1(C)C | 2.34 µM | > 250 µM | 2.71 µM | 3.81 µM | 2.53 µM | > 250 µM | 8 µM |  |  |  |  |  | 
13 | C[C@H]1[C@H](C)CC[C@]2(C)CC[C@]3(C)C(=CC[C@@H]4[C@@]5(C)CC[C@H](O)C(C)(C)[C@@H]5CC[C@]43C)[C@H]12 | 7.66 µM | > 250 µM |  | 10.5 µM |  | > 250 µM | 12.8 µM | inactive |  |  |  |  | 
14 | CC1(C)C=C2[C@H]3CC[C@@H]4[C@@]5(C)CC[C@H](O)C(C)(C)[C@@H]5CC[C@@]4(C)[C@]3(C)CC[C@@]2(C)CC1 [GERMANICOL] |  |  |  |  |  |  |  | inactive | Not Active | inactive | inactive | inactive | inactive
